# Test results from patent publication US7998961B2, “Hydantoin derivatives useful as antibacterial agents” (Schering Corporation, priority 2006, dated 2011).
# Where two headings read alike, the source gives them in different places.
# Target: T1, LpxC enzyme (Escherichia coli, UniProt P0A725)
# T1 sequence (P0A725 1-305): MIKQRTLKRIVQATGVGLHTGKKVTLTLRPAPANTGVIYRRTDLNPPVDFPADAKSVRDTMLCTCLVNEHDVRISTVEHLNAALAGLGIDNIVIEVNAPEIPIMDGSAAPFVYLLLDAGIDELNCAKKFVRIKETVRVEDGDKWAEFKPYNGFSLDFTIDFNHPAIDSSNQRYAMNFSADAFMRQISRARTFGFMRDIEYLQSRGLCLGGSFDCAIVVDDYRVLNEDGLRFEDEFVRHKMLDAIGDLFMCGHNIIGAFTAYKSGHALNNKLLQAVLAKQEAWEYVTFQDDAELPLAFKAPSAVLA
# Assay: standard LpxC enzyme assay (RapidFire high-throughput mass spectrometry)
# Type: biochemical
# Settings: for IC50: LpxC inhibitory activity; for inhibition at 25 µg/mL: compound at 25 ug/mL
# Description: The standard LpxC assay consists of 0.2 nM LpxC enzyme, 1.0 μM UDP-3-O—(R-3-hydroxymyristoyl)-N-acetylglucosamine, and test compound, in assay buffer and 2% DMSO. Assay buffer is comprised of 25 mM HEPES, pH 7.3, 150 mM NaCl, 2.0 mM DTT, and 0.01% BSA. The enzyme reaction is carried out in a 96-well assay plate, in a final volume of 102 μL. Solutions of test compounds are prepared in 100% DMSO. Reaction additions, in order, are (1) 2.0 μL compound solution, (2) 80 μL of assay buffer, (3) 10 μL of 10 μM UDP-3-O—(R-3-hydroxymyristoyl)-N-acetylglucosamine (in assay buffer) and, (4) 10 μL of LpxC enzyme (20 nM in assay buffer) to initiate the reaction. In positive control reactions, addition (1) has 2.0 μL of 100% DMSO (without compound); these reactions are used as the total signal (TSB) value. Reactions are incubated at room temperature for 60 minutes when 10 μL of 1 N HCl is added to stop the reaction. The plate is shaken by hand for 10 seconds to ensure complete quenching. Assay plates are sealed with foil tape, and stored at −80° C. for 24-48 hr prior to analysis.
# The concentrations of substrate and product in the reaction mixtures are determined with BioTrove's proprietary RapidFire™ high-throughput mass spectrometry (HTMS). Assay mixtures are partially purified with reverse phase chromatography, where they are washed with water containing 5 mM ammonium formate and eluted onto the mass spectrometer in 80% acetonitrile, 20% water, and 5 mM ammonium formate. The mass spectrometry peak areas of the substrate and product are measured to determine the concentration of these analytes. The assay signal is the percentage of substrate that is converted to product. Percent inhibition, % I, in test samples is determined from the following equation: […]
# [1] = read-out: LpxC enzyme assay rating (% inhibition at indicated concentrations of 100 and 25 ug/mL): 25
# [2] = compound at 100 ug/mL, read-out: LpxC enzyme assay rating (% inhibition at indicated concentrations of 100 and 25 ug/mL): 100
# [3] = read-out: Numerical LpxC inhibitory activity (% inhibition): 100
Structure (SMILES),IC50 (read-out: IC50 rating) [nM],also measured
C#Cc1ccc(C2CCN(C(=O)CC3(C)NC(=O)NC3=O)CC2)cc1 (centres unmarked) [Compound 75],> 5000,
C[C@@H](NC(=O)CC1(C)NC(=O)NC1=O)c1ccc(C#Cc2ccccc2)cc1 (some centres unmarked) [Compound 40],> 5000,
CC1(CC(=O)NCCc2cccc(C#Cc3ccccc3)c2)NC(=O)NC1=O (centres unmarked) [Compound 35],,inhibition at 25 µg/mL [1]: < 10%
O=C1NC(=O)C(CC(=O)N2CCN(c3ccc(C#Cc4ccccc4)cc3)CC2)N1 (centres unmarked) [Compound 42],,inhibition at 100 µg/mL [2]: > 30%
CC1(CC(=O)N2CCC(c3ccc(C#Cc4ccccc4)cc3)CC2)NC(=O)NC1=O (centres unmarked) [Compound 36],250 to 1000,IC50 (read-out: IC50 values): 600 nM
CC1(CNC(=O)c2ccc(C#Cc3ccccc3)cc2)NC(=O)NC1=O (centres unmarked) [Compound 66],> 5000,
O=C1NC(=O)C(CC(=O)N2CCC(c3ccc(C#Cc4ccccc4)cc3)CC2)N1 (centres unmarked) [Compound 41],,inhibition at 100 µg/mL [2]: > 30%; inhibition at 100 µg/mL [3]: 60%
CC1(CC(=O)N2CCC(c3ccc(-c4ccncc4)cc3)CC2)NC(=O)NC1=O (centres unmarked) [Compound 79],> 5000,
CC1(CC(=O)Nc2ccc(C#Cc3ccccc3)cc2)NC(=O)NC1=O (centres unmarked) [Compound 33],> 5000,
CCC1(CC(=O)N2CCC(c3ccc(C#Cc4ccccc4)cc3)CC2)NC(=O)NC1=O (centres unmarked) [Compound 43],250 to 1000,IC50 (read-out: IC50 values): 700 nM
C[C@H](O)[C@@H](NC(=O)c1ccc(C#Cc2ccccc2)cc1)C1NC(=O)NC1=O (some centres unmarked) [Compound 65],> 5000,
CCC1(CC(=O)N2CCC(c3ccc(Br)cc3)CC2)NC(=O)NC1=O (centres unmarked) [Compound 47],,inhibition at 100 µg/mL [2]: > 30%
CC1(CC(=O)NCCc2ccc(C#Cc3ccccc3)cc2)NC(=O)NC1=O (centres unmarked) [Compound 34],,inhibition at 25 µg/mL [1]: 10 to 30%; inhibition at 25 µg/mL (read-out: Numerical LpxC inhibitory activity (% inhibition): 25): 30%
CC1(CC(=O)N2CCC(O)(c3ccc(C#Cc4ccccc4)cc3)CC2)NC(=O)NC1=O (centres unmarked) [Compound 38],1000 to 5000,
CC1(CC(=O)N2CCC(c3ccc(Br)cc3)CC2)NC(=O)NC1=O (centres unmarked) [Compound 46],,inhibition at 100 µg/mL [2]: > 30%
C[C@@H](O)[C@H](NC(=O)c1ccc(C#Cc2ccccc2)cc1)C1NC(=O)NC1=O (some centres unmarked) [Compound 64],> 5000,
CC1(CC(=O)N2CCC(c3ccc(CCN4CCOCC4)cc3)CC2)NC(=O)NC1=O (centres unmarked) [Compound 77],> 5000,
CC1(CC(=O)N2CCN(c3ccc(C#Cc4ccccc4)cc3)CC2)NC(=O)NC1=O (centres unmarked) [Compound 39],250 to 1000,IC50 (read-out: IC50 values): 500 nM
CC1(CC(=O)Nc2ccccc2C#Cc2ccccc2)NC(=O)NC1=O (centres unmarked) [Compound 32],,inhibition at 25 µg/mL [1]: < 10%
CCc1ccc(C2CCN(C(=O)CC3(C)NC(=O)NC3=O)CC2)cc1 (centres unmarked) [Compound 76],> 5000,
CC1(CC(=O)N2CCCC(c3ccc(C#Cc4ccccc4)cc3)C2)NC(=O)NC1=O (centres unmarked) [Compound 37],250 to 1000,
O=C1NC(=O)C(CC(=O)N2CCC(c3ccc(Br)cc3)CC2)N1 (centres unmarked) [Compound 45],,inhibition at 100 µg/mL [2]: > 30%; inhibition at 100 µg/mL [3]: 68%
CC1(CC(=O)N2CCC(c3ccc(-c4ccccc4)cc3)CC2)NC(=O)NC1=O (centres unmarked) [Compound 78],> 5000,
